Measurements from PMC4550478, “Metronidazole-triazole conjugates: Activity against Clostridium difficile and parasites” (European Journal of Medicinal Chemistry, 2015).
Converted amounts (≈) assume the structure as drawn. Read-outs that look alike come from different tables or passages of the source.

Experiments:
[1] = tested on: H. pylori 26695; assay: MIC agar dilution, H. pylori 26695; type: cell-based; settings: Helicobacter pylori, MtzS, microaerobic
Experimental: (§1) All compounds were tested for activity against a set of anaerobic C. difficile bacteria (630 ATCC BAA-1382, NAP1/027 M7404, NAP1/027 ATCC BAA-1803, VPI10463 ATCC 43255, CD26A54_S and CD26A54_R) and representative ESKAPE pathogens S. aureus (MRSA ATCC 43300), E. coli (ATCC 25922), K. pneumoniae (ATCC 700603), A. baumannii (ATCC 19606) and P. aeruginosa (ATCC 27853) using a standard broth microdilution assay. Selected compounds were tested for activity against H. pylori strains (26695, and clinical isolates MtzS 13/25, MtzR 98/285 and MtzR 13/61) using agar plate dilution, and for antimicrobial activity against […] Gram-positive bacterial strains: Enterococcus faecalis (VanA clinical isolate), Enterococcus faecium (MDR VanA ATCC 51559), Streptococcus pneumoniae (MDR ATCC 700677), S. aureus (MRSA ATCC 43300, MRSA clinical isolate, MRSA/DRSA clinical isolate, GISA NARSA NRS 1, GISA NARSA NRS 17, VRSA NARSA VRS1, VRSA NARSA VRS4 and VRSA NARSA VRS10) using broth microdilution. C. difficile strains were grown at 37 °C in a COY anaerobic chamber (5% H2, 10% CO2, 85% N2). H. pylori strains were grown at 37 °C under a microaerobic atmosphere (5% O2, 10% CO2). All facultative anaerobic bacteria were grown at 37 °C with normal atmospheric oxygen levels. All experiments were performed in duplicate with metronidazole, vancomycin, linezolid or colistin as positive controls for relevant strains (see Table 1). Positive growth control of bacteria and DMSO as well as a negative control of only media were included for every plate. Full assay details are provided in the supplementary information.
(§2) Helicobacter pylori strains, with a range of resistance levels to metronidazole (256 µg/ml, 64 µg/ml, 24 µg/ml, 2 µg/ml, and 0.04 µg/ml), were selected and obtained from Helicobacter Research Laboratory, University of Western Australia. The resistance strength to metronidazole was recorded according to eTest (bioMérieux). H. pylori strain 26695 was used as the control. H. pylori was maintained on the non-selective Columbia blood agar plates (CBA) (Columbia agar base Oxoid) with 5% horse blood and incubated at 37 °C and 10% CO2 for 48 hrs. […] Each of the H. pylori strains were harvested, OD600 calibrated to 0.3, and spotted in triplicate on CBA pre-mixed with the compound. The lowest concentration of antibiotic showing no growth was read as the MIC. The experiment was performed in duplicate.

[2] = tested on: G. lamblia 713-M3 (713M); set-up: method as in earlier work; settings: MtzR, crude Mtz-triazoles (>85% purity), ref 15 (Miyamoto et al.); read-out: EC50 G. lamblia 713M, Lit.; cited from earlier work
[3] = tested on: H. pylori clinical isolate 13/61; assay: MIC agar dilution, H. pylori 13/61; type: cell-based; settings: Helicobacter pylori, MtzR clinical isolate
Experimental: as §1, §2

[4] = tested on: G. lamblia BRIS/87/HEPU/713 (713); set-up: method as in earlier work; settings: MtzS, crude Mtz-triazoles (>85% purity), ref 15 (Miyamoto et al.); read-out: EC50 G. lamblia 713, Lit.; cited from earlier work
[5] = tested on: H. pylori clinical isolate 13/25; assay: MIC agar dilution, H. pylori 13/25; type: cell-based; settings: Helicobacter pylori, MtzS clinical isolate
Experimental: as §1, §2

[6] = MIC broth microdilution, drug resistant Gram-positive panel; type: cell-based; settings: all strains of the panel; read-out: MIC against panel of drug resistant Gram-positive strains
Experimental: as §1
MICs were determined by a two-fold serial broth micro dilution according to the recommendation of CLSI standards with an inoculum of 5 × 10^5 CFU/mL^4 The compounds along with standard antibiotics were serially diluted twofold across the wells of 96-well non-binding surface plates (NBS, Corning). Standards ranged from 64 to 0.03 μg/mL, and the compounds from 128 to 0.06 μg/mL with final volumes of 50 μL per well. Gram-positive and Gram-negative bacteria were cultured in Mueller Hinton broth (MHB) (Bacto laboratories, Cat. no. 211443) at 37 °C overnight. A sample of each culture was then diluted 40-fold in fresh MHB broth and incubated at 37 °C for 2-3 h. The resultant mid-log phase cultures were diluted to the final concentration of 5 × 10^5 CFU/mL, then 50 μL was added to each well of the compound containing 96-well plates. All the plates were covered and incubated at 37 °C for 24 h.

[7] = Cytotoxicity, resazurin, HEK293; type: cell-based; settings: human
Experimental: Compounds were tested for cytotoxicity against mammalian HepG2 and HEK293 cell lines, as detailed in the supplementary information.
HEK293 and HepG2 cells were seeded as 3000 and 5000 cells per well in 384-well plates, respectively. Cells were cultured in DMEM with 1% FBS for 24 hours at 37 °C, 5% CO2. Then a dilution series of compounds was added into each well, with the highest concentration of 100 µM. […] After 24 hours incubation with the compounds, 5 µM resazurin were added into each well and incubated at 37 °C for 2 hours. As a negative control, 1% Triton X-100 was added into the culture media to lyse all the cells. The fluorescence intensity was read using Polarstar Omega with excitation/emission 560/590. The data was analysed by GraphPad Prism software. Results are presented as the average percentage of control ± SD using the following equation: Percentage of Growth = (FITEST – FINegative/FIUNTREATED –FINegative)*100.

[8] = tested on: H. pylori clinical isolate 98/285; assay: MIC agar dilution, H. pylori 98/285; type: cell-based; settings: Helicobacter pylori, MtzR clinical isolate
Experimental: as §1, §2

Row | SMILES | MIC [1] [µg/mL] | EC50 [2] [nM] | MIC [3] [µg/mL] | EC50 [4] [nM] | MIC [5] [µg/mL] | MIC [6] [µg/mL] | CC50 at 24 h [7] [nM] | MIC [8] [µg/mL] | CC50 at 24 h ([7]; no cytotoxicity up to 100 μM, 24 hours incubation, read-out: CC50 HEK293) [nM]
1 | Cc1ncc([N+](=O)[O-])n1CCO [Compound 1, metronidazole] | 8 (≈ 46.7 µM) | 50000 | 32 to 64 (≈ 187 to 374 µM) | 2000 | 4 to 8 (≈ 23.4 to 46.7 µM) | > 64 | > 100000 | 64 (≈ 374 µM) | –
2 | Cc1ncc([N+](=O)[O-])n1CCN=[N+]=[N-] [Compound 3, 1-(2-azidoethyl)-2-methyl-5-nitro-1H-imidazole] | – | – | – | – | – | – | – | – | > 100000
3 | Cc1ncc([N+](=O)[O-])n1CCn1cc(-c2ccccc2)nn1 [Compound 4a, 1-(2-(2-methyl-5-nitro-1H-imidazol-1-yl)ethyl)-4-phenyl-1H-1,2,3-triazole] | – | 5300 | – | 160 | – | > 64 | – | – | –
4 | Cc1ncc([N+](=O)[O-])n1CCn1cc(-c2ccc(Cl)c(Cl)c2)nn1 [Compound 4d, 1-(2-(2-methyl-5-nitro-1H-imidazol-1-yl)ethyl)-4-(3,4-dichlorophenyl)-1H-1,2,3-triazole] | – | 570 | – | 310 | – | – | – | – | –
5 | Cc1ccc(-c2cn(CCn3c([N+](=O)[O-])cnc3C)nn2)cc1 [Compound 4e, 1-(2-(2-methyl-5-nitro-1H-imidazol-1-yl)ethyl)-4-(p-tolyl)-1H-1,2,3-triazole] | – | 8100 | – | 530 | – | – | – | – | –
6 | COC(=O)c1cn(CCn2c([N+](=O)[O-])cnc2C)nn1 [Compound 4f, 1-(2-(2-methyl-5-nitro-1H-imidazol-1-yl)ethyl)-4-(methoxycarbonyl)-1H-1,2,3-triazole] | 32 to 64 (≈ 114 to 228 µM) | – | – | – | 32 to 64 (≈ 114 to 228 µM) | – | – | – | –
7 | Cc1ncc([N+](=O)[O-])n1CCn1cc(Cn2cccn2)nn1 [Compound 4g, 1-(2-(2-methyl-5-nitro-1H-imidazol-1-yl)ethyl)-4-((1H-pyrazol-1-yl)methyl)-1H-1,2,3-triazole] | 2 to 4 (≈ 6.62 to 13.2 µM) | – | 16 to 32 (≈ 52.9 to 106 µM) | – | 2 (≈ 6.62 µM) | – | – | 16 to 32 (≈ 52.9 to 106 µM) | –
8 | Cc1ncc([N+](=O)[O-])n1CCn1cc(-c2ccccn2)nn1 [Compound 4h, 1-(2-(2-methyl-5-nitro-1H-imidazol-1-yl)ethyl)-4-(2-pyridinyl)-1H-1,2,3-triazole.xTFA] | 2 | 14000 | 16 | 350 | 1 | – | – | 32 | –
9 | Cc1ncc([N+](=O)[O-])n1CCn1cc(Cc2ccccc2)nn1 [Compound 4k, 1-(2-(2-methyl-5-nitro-1H-imidazol-1-yl)ethyl)-4-benzyl-1H-1,2,3-triazole] | – | 5200 | – | 390 | – | – | – | – | –
10 | Cc1ncc([N+](=O)[O-])n1CCn1cc(CN(C)Cc2ccccc2)nn1 [Compound 4m, 1-(2-(2-methyl-5-nitro-1H-imidazol-1-yl)ethyl)-4-(N-benzyl, N-methylaminomethyl)-1H-1,2,3-triazole] | 4 (≈ 11.3 µM) | 9300 | 16 (≈ 45 µM) | 910 | 2 (≈ 5.63 µM) | – | – | – | –
11 | Cc1ncc([N+](=O)[O-])n1CCn1cc(-c2ccsc2)nn1 [Compound 4n, 1-(2-(2-methyl-5-nitro-1H-imidazol-1-yl)ethyl)-4-(thiophen-3-yl)-1H-1,2,3-triazole] | – | 6900 | – | 230 | – | – | – | – | –
12 | Cc1ncc([N+](=O)[O-])n1CCn1cc(CO)nn1 [Compound 4q, 1-(2-(2-methyl-5-nitro-1H-imidazol-1-yl)ethyl)-4-(hydroxymethyl)-1H-1,2,3-triazole] | – | – | – | – | – | > 64 | – | – | –
13 | Cc1ncc([N+](=O)[O-])n1CCn1cc(C(=O)O)nn1 [Compound 4s, 1-(2-(2-methyl-5-nitro-1H-imidazol-1-yl)ethyl)-4-(carboxy)-1H-1,2,3-triazole] | > 64 | – | > 64 | – | > 64 | – | – | > 64 | –
